Earlier results, collected in patent publication US11577235B1, “Layered catalyst reactor systems and processes for hydrotreatment of hydrocarbon feedstocks” (Chevron U.S.A. Inc., priority 2021, dated 2023).

System: rats
Settings: single oral dose to rats

Molecule | LD50
thio-diglycolic acid | 500 mg/kg
O=CC(=O)O [glyoxylic] | 3000 mg/kg
